Assay results taken from patent US7858635B2 (priority 2005, dated 2010).
Like-named read-outs stand apart in the source and are kept apart here.

How the values were obtained:
M1 muscarinic receptor = target: T1, M1 muscarinic receptor (Homo sapiens, UniProt P11229); test: Functional mobilization of intracellular calcium (FLIPR, Fluo-3), M1-CHO cells; type: cell-based; conditions: for Emax: read-out: M1 Efficacy
T1 construct: expressed in transfected cells; host or cells: CHO cells (M1-CHO, under zeocin and G418 selection)
T1 sequence (P11229 1-460): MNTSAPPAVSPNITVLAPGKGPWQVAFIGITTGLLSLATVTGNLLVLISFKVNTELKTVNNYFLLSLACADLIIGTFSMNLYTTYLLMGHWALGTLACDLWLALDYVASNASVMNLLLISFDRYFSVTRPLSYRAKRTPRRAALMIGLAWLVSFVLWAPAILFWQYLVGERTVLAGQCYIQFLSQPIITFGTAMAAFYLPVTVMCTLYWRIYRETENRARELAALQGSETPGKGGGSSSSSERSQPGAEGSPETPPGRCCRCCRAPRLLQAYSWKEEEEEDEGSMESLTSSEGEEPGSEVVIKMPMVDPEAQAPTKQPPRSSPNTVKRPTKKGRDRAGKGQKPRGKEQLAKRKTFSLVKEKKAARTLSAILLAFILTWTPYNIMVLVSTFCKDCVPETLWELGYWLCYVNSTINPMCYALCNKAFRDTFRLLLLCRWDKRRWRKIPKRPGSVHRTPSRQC
In short: (§1)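 Intracellular calcium was tracked by fluorescence (488/540 nm) over 60 sec after compound addition to dye-loaded CHO cells expressing the receptor. Inhibitory activity used a 15 min pre-incubation before carbachol at the subtype EC80.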

M4 muscarinic receptor = target: T2, M4 muscarinic receptor (Homo sapiens, UniProt P08173); test: Functional mobilization of intracellular calcium (FLIPR, Fluo-3), M4-CHO cells; type: cell-based; conditions: for Emax: read-out: M4 Efficacy
T2 construct: expressed in transfected cells; host or cells: CHO cells (M4-CHO, under puromycin, zeocin and blasticidin selection)
T2 sequence (P08173 1-479): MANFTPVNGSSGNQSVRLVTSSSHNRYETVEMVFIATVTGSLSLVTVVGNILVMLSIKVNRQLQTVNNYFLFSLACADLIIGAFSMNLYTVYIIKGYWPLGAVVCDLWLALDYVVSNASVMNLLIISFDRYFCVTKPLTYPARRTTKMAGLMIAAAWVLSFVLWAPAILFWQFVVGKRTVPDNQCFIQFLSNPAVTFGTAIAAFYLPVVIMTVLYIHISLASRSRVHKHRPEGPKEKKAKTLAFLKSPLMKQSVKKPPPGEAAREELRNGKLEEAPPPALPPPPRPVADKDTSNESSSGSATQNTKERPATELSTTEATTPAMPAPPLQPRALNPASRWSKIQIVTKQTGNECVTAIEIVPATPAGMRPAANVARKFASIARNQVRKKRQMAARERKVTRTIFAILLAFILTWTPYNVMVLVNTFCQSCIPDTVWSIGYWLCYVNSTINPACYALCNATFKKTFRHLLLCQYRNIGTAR
In short: as §1

[1] = compound nos. 1-454, 100% efficacy is the maximum response obtained with the Carbachol control
[2] = compound nos. 1-454, M1-CHO cells, calcium mobilization
[3] = compound nos. 1-454, M4-CHO cells, calcium mobilization
[4] = compound nos. 455-509, 100% efficacy is the maximum response obtained with the Carbachol control

| Structure (SMILES) | Emax (M1 muscarinic receptor; [1]) [%] | M1 Activity (M1 muscarinic receptor; [2]) | Emax (M4 muscarinic receptor; [1]) [%] | M4 Activity (M4 muscarinic receptor; [3]) | further results |
| --- | --- | --- | --- | --- | --- |
| CC(=O)N1CC2(CCN(CC3CCCOC3)CC2)c2cc(F)ccc21 (stereo not drawn) [compound 75] | < 65 | +++ (activity was measured to be less than or equal to 0.7 μM) | 55 to 70 | ++ (activity was measured to be between 0.1 μM and 4.0 μM) |  |
| CN(C)C(=O)N1CC2(CCN(C3CCN(c4cnc5ccccc5n4)CC3)CC2)c2ccccc21 [compound 497] |  |  |  |  | Emax (M1 muscarinic receptor; [4]): > 100%; M1 Activity (M1 muscarinic receptor; compounds 455-509): +++ (activity was measured to be less than or equal to 2.0 μM); Emax (M4 muscarinic receptor; [4]): 25 to 100%; M4 Activity (M4 muscarinic receptor; compounds 455-509): ++ (activity was measured to be between 2.0 μM and 5.0 μM) |
| CC(C)COC(=O)N1C2CCC1CC(N1CCC3(CC1)COc1ccc(F)cc13)C2 (stereo not drawn) [compound 160] | > 85 | +++ (activity was measured to be less than or equal to 0.7 μM) | > 70 | ++ (activity was measured to be between 0.1 μM and 4.0 μM) |  |
| CC(C)OC(=O)N1C2CCC1CC(N1CCC3(CC1)CN(S(C)(=O)=O)c1ccc(F)cc13)C2 (stereo not drawn) [compound 170] | 65 to 85 | ++ (activity was measured to be between 0.7 μM and 3.0 μM) | > 70 | + (activity was measured to be greater than or equal to 4.0 μM) |  |
| CN(C)C(=O)N1CCC2(CCN(C3CCN(c4cnccn4)CC3)CC2)c2ccccc21 [compound 457] |  |  |  |  | Emax (M1 muscarinic receptor; [4]): > 100%; M1 Activity (M1 muscarinic receptor; compounds 455-509): +++ (activity was measured to be less than or equal to 2.0 μM); Emax (M4 muscarinic receptor; [4]): 25 to 100%; M4 Activity (M4 muscarinic receptor; compounds 455-509): ++ (activity was measured to be between 2.0 μM and 5.0 μM) |
| O=C(O[C@H]1CCOC1)N1C2CCC1CC(N1CCC3(CC1)COc1ccc(F)cc13)C2 (stereo partly drawn) [compound 212] | < 65 | + (activity was measured to be greater than or equal to 3.0 μM) | < 55 | + (activity was measured to be greater than or equal to 4.0 μM) |  |
| CC(=O)N1CC2(CCN(C3CC[C@@H]4CC[C@@H]3C4)CC2)c2cc(F)ccc21 (stereo partly drawn) [compound 251] | 65 to 85 | ++ (activity was measured to be between 0.7 μM and 3.0 μM) | 55 to 70 | + (activity was measured to be greater than or equal to 4.0 μM) |  |
| CC(=O)NC1CC2(CCN(C[C@H]3C[C@H]4CC[C@H]3C4)CC2)c2ccccc21 (stereo partly drawn) [compound 161] | > 85 | ++ (activity was measured to be between 0.7 μM and 3.0 μM) | > 70 | + (activity was measured to be greater than or equal to 4.0 μM) |  |
| Fc1ccc2c(c1)C1(CCN([C@H]3C[C@@H]4CC[C@@H]3C4)CC1)CO2 [compound 204] | 65 to 85 | +++ (activity was measured to be less than or equal to 0.7 μM) | < 55 | + (activity was measured to be greater than or equal to 4.0 μM) |  |
| CN(C)C(=O)N1CC2(CCN(C3(C)CCN(c4cnccn4)CC3)CC2)c2ccccc21 [compound 465] |  |  |  |  | Emax (M1 muscarinic receptor; [4]): > 100%; M1 Activity (M1 muscarinic receptor; compounds 455-509): ++ (activity was measured to be between 2.0 μM and 5.0 μM); Emax (M4 muscarinic receptor; [4]): 25 to 100%; M4 Activity (M4 muscarinic receptor; compounds 455-509): ++ (activity was measured to be between 2.0 μM and 5.0 μM) |
| CC(=O)NC1CC2(CCN(C3CCCCCC3)CC2)c2ccccc21 (stereo not drawn) [compound 159] | > 85 | ++ (activity was measured to be between 0.7 μM and 3.0 μM) | > 70 | + (activity was measured to be greater than or equal to 4.0 μM) |  |
| Cc1nsc(N2C3CCC2CC(N2CCC4(CC2)CN(C(=O)N(C)C)c2ccccc24)C3)n1 (stereo not drawn) [compound 493] |  |  |  |  | Emax (M1 muscarinic receptor; [4]): > 100%; M1 Activity (M1 muscarinic receptor; compounds 455-509): +++ (activity was measured to be less than or equal to 2.0 μM); Emax (M4 muscarinic receptor; [4]): 25 to 100%; M4 Activity (M4 muscarinic receptor; compounds 455-509): ++ (activity was measured to be between 2.0 μM and 5.0 μM) |
| CCOC(=O)N1CCC(N2CCC3(CC2)CN(C(C)=O)c2ccc(CC)cc23)CC1 [compound 137] | > 85 | +++ (activity was measured to be less than or equal to 0.7 μM) | > 70 | + (activity was measured to be greater than or equal to 4.0 μM) |  |
| CCCOC(=O)N1C2CCC1CC(N1CCC3(CC1)CN(C(=O)O[C@@H]1CCOC1)c1ccc(F)cc13)C2 (stereo partly drawn) [compound 297] |  | + (activity was measured to be greater than or equal to 3.0 μM) |  | + (activity was measured to be greater than or equal to 4.0 μM) | M1 Efficacy (M1 muscarinic receptor; [1]): ++ (efficacy was calculated to be between 85% and 65%); M4 Efficacy (M4 muscarinic receptor; [1]): ++ (efficacy was calculated to be between 70% and 55%) |
| CCOC(=O)N1CCC(N2CCC3(CC2)CNc2ccc(Cl)cc23)CC1 [compound 19] | 65 to 85 | +++ (activity was measured to be less than or equal to 0.7 μM) | 55 to 70 | ++ (activity was measured to be between 0.1 μM and 4.0 μM) |  |
| CCOC(=O)N1CCC(N2CCC3(CC2)CN(C(=O)c2ccccc2C)c2ccc(F)cc23)CC1 [compound 53] | < 65 | ++ (activity was measured to be between 0.7 μM and 3.0 μM) | 55 to 70 | ++ (activity was measured to be between 0.1 μM and 4.0 μM) |  |
| COc1cccc(N2CCC(N3CCC4(CC3)CN(C(=O)N(C)C)c3ccc(F)cc34)CC2)c1 [compound 441] | 65 to 85 |  | 55 to 70 |  | M1 Activity (M1 muscarinic receptor; compound nos. 1-454): ++ (activity was measured to be between 0.7 μM and 3.0 μM); M4 Activity (M4 muscarinic receptor; compound nos. 1-454): +++ (activity was measured to be less than or equal to 0.1 μM) |
| CCOC(=O)N1C2CCC1CC(N1CCC3(CC1)CNc1ccc(Cl)cc13)C2 (stereo not drawn) [compound 351] | 65 to 85 | +++ (activity was measured to be less than or equal to 0.7 μM) | > 70 | ++ (activity was measured to be between 0.1 μM and 4.0 μM) |  |
| O=C(OC1CCCC1)N1C2CCC1CC(N1CCC3(CC1)C(=O)Nc1ccccc13)C2 (stereo not drawn) [compound 271] | 65 to 85 | +++ (activity was measured to be less than or equal to 0.7 μM) | < 55 | +++ (activity was measured to be less than or equal to 0.1 μM) |  |
| CC(=O)N1CCC2(CCN(C3CCN(c4cnc5ccccc5n4)CC3)CC2)c2ccccc21 [compound 456] |  |  |  |  | Emax (M1 muscarinic receptor; [4]): > 100%; M1 Activity (M1 muscarinic receptor; compounds 455-509): ++ (activity was measured to be between 2.0 μM and 5.0 μM); Emax (M4 muscarinic receptor; [4]): 25 to 100%; M4 Activity (M4 muscarinic receptor; compounds 455-509): ++ (activity was measured to be between 2.0 μM and 5.0 μM) |
| Cc1ccc2c(c1)C1(CCN(CC3CC4CCC3C4)CC1)CN2C(=O)OC(C)(C)C (stereo not drawn) [compound 382] | 65 to 85 |  | 55 to 70 |  | M1 Activity (M1 muscarinic receptor; compound nos. 1-454): +++ (activity was measured to be less than or equal to 0.7 μM); M4 Activity (M4 muscarinic receptor; compound nos. 1-454): + (activity was measured to be greater than or equal to 4.0 μM) |
